From PubChem BioAssay AID1645864 (Buhrlage Lab, Dana-Farber Cancer Institute and Novartis …, 2021)
Activity calls are given as the source filed them.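 The calls were made as follows: active = maximal inhibition of USP17 at or above 30% in the confirmation dose-response, a value not among the printed readouts; inactive = the rest.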

These molecules were tested against Ubiquitin carboxyl-terminal hydrolase 17-like protein 5 (Homo sapiens) (UniProt A8MUK1) (assay: ubiquitin-specific protease 17 DUB inhibitors, concentration-effect assay, cell-free, verification of initial screening actives (AID 1645864)). Settings: purified USP17, ubiquitin-rhodamine cleavage fluorescence, 3 h.
Ubiquitin carboxyl-terminal hydrolase 17-like protein 5 (Homo sapiens), sequence (A8MUK1 whole entry, looked up): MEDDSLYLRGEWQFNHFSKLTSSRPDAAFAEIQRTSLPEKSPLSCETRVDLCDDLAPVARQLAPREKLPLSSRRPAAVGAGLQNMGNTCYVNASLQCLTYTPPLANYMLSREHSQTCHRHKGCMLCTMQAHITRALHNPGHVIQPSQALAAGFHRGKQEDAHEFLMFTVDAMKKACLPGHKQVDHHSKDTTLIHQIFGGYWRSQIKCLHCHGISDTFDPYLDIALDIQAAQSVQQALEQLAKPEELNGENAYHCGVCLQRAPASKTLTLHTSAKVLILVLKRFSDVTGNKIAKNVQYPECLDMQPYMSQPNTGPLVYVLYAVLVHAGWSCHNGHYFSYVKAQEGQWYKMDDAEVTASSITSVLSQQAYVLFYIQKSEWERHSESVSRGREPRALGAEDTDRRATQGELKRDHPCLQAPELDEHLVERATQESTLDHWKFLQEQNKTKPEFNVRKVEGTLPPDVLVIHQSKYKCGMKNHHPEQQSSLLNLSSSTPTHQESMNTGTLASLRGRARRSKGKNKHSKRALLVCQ

| SMILES | IC50 |
| --- | --- |
| Cc1ccc(-n2nnc(C(=O)NC3CCCCC3)c2N)cc1 | 22.1 µM |
| COc1ccc(C(=O)Nc2nc(-c3ccc4c(c3)NC(=O)CO4)c(C)s2)cc1OC | 1.23 µM |
| O=C(Nc1ccc2c(c1)OCCO2)c1cc(CN2CCCC2)on1 | > 50 µM (inactive) |
| Cc1ccc(CNC(=O)Cn2cnc3c(cnn3-c3cccc(Cl)c3)c2=O)cc1 | 1.49 µM |
| O=C(Cn1cc(C(=O)C2CC2)c2ccccc21)NCc1ccc2c(c1)OCO2 | 29.1 µM |
| O=c1c(Nc2cccc(F)c2)nc2ccncc2n1Cc1ccccc1 | 12.5 µM |
| Cc1cccc(-n2ccnc(SCC(=O)Nc3ccc(Cl)cc3F)c2=O)c1 | 2.21 µM |
| COc1ccccc1-c1nc(-c2cn(-c3ccc(C)cc3)nn2)no1 | 28.9 µM |
| COc1ccc(C(=O)NCCc2nnc3ccc(SCC(=O)NCc4ccc(F)cc4)nn23)cc1 | 18.5 µM |
| CCCN1CCN(C(=O)c2cc(NC(=O)C3CCC3)cc3nc(C)ccc23)CC1 | > 50 µM (inactive) |
| O=C(NC(Cc1ccccc1)c1nc2ccccc2[nH]1)c1ccccn1 (stereo unspecified) | > 50 µM (inactive) |
| O=C(C(c1ccccc1)c1ccccc1)N1CCC(c2nc3c(nnn3Cc3c(F)cccc3Cl)c(=O)[nH]2)CC1 | 15.1 µM |
| CC(OC(=O)c1ccc2c(c1)OCCO2)C(=O)NCC1CCCCC1 (stereo unspecified) | 30.1 µM |
| Cc1nc(N2CCCC2)ncc1C(=O)Nc1ccc(F)c(F)c1 | 32.3 µM |
| C[C@@H](C(=O)NCc1ccc(F)cc1)N1C(=O)N2CCc3c([nH]c4ccccc34)[C@@]2(C)C1=O | 5.77 µM |
| COCCNC(=O)c1cc(-c2cn(-c3ccccn3)c(C)n2)n2ccccc12 | > 50 µM (inactive) |
| CC1CCCN(CCCNC(=O)c2ccc(N3CCc4ccccc43)s2)C1 (stereo unspecified) | > 50 µM (inactive) |
| Cc1ccc(Cn2cc(-c3noc(-c4ccncc4)n3)nn2)cc1 | 28.6 µM |
| Cn1c(-c2nnc(SCC(=O)NCCc3ccccc3)o2)cc2ccccc21 | 8.23 µM |
| Cc1noc(-c2cc(=O)n(CC(=O)NCc3ccccc3)c3ccccc23)n1 | 45.6 µM |
| Cc1ccc(Cn2cc(-c3noc(-c4ccc[nH]4)n3)nn2)cc1 | 21.2 µM |
| O=C(COc1ccc(Cl)cc1)N1CCc2cc3ccccc3nc21 | 2.41 µM |
| Cc1oc(-c2ccc(C(=O)NCC3COCCO3)cc2)nc1CN1CCc2ccccc21 (stereo unspecified) | > 50 µM (inactive) |
| CC(C)N1C[C@@H]2C[C@H](NS(=O)(=O)c3cccc(C#N)c3)CN2Cc2ccccc21 | > 50 µM (inactive) |
| O=C(NCc1ccccc1Cl)c1ccc(-c2nnc(-c3ccccc3)o2)cc1 | 2.5 µM |
| O=C(COc1ccc2c(-c3ccccc3)cc(=O)oc2c1)Nc1cccnc1 | 1.7 µM |

| SMILES | IC50 |
| --- | --- |
| COc1cc(N)c(Cl)cc1C(=O)OCC(=O)c1ccc2c(c1)OCCO2 | > 50 µM (inactive) |
| O=C(Nc1ccc(-c2cn3ccccc3n2)cc1)C1C=C2C=C(Br)C=CC2OC1=O (stereo unspecified) | 0.577 µM |
| Cc1ccc(NC(=O)Cn2c(-n3nc(C)cc3C)nc3c(c2=O)CCCC3)c(C)c1 | 32.6 µM |
| COc1ccc(C(=O)Nc2nc3n(n2)C(c2ccccc2)CC(=O)N3)cc1 (stereo unspecified) | 10.2 µM |
| CC(C)c1ccc(NC(=O)c2cc3ncc(Br)cn3n2)cc1 | 1.73 µM |
| CCn1c(CN2CCCC(c3nc(-c4cccnc4)n[nH]3)C2)nc2ccccc21 (stereo unspecified) | > 50 µM (inactive) |
| COc1ccc(CCNC(=O)c2ccc3ccccc3c2)cc1OC | > 50 µM (inactive) |
| Cc1ccccc1NC(=O)c1ccn(COc2ccc(Cl)cc2)n1 | > 50 µM (inactive) |
| O=c1c2c(ccn1Cc1cc(F)ccc1F)ccn2Cc1cccnc1 | > 50 µM (inactive) |
| CCOC(=O)C1C(c2ccc(Br)cc2)C2(C(=O)c3ccccc3C2=O)C2C=Cc3ccccc3N12 (stereo unspecified) | > 50 µM (inactive) |
| CCc1ccc2[nH]c3c(c(=O)c2c1)CN(CC(=O)NCc1ccc2c(c1)OCO2)CC3 | 28.1 µM |
| CC(C)N1CC[C@@H]2[C@H](C1)CN2C(=O)Nc1cccc(F)c1 | > 50 µM (inactive) |
| Cc1cc(C)cc(N(CCC(=O)Nc2ccc(N3CCOCC3)cc2)S(=O)(=O)c2ccc(Cl)cc2)c1 | 18.2 µM |
| CCn1c(COc2cccc(C(F)(F)F)c2)nnc1SCc1ccc(Cl)cc1 | 43.4 µM |
| Cn1c(-c2nnc(SCC(=O)Nc3ccccc3F)o2)cc2ccccc21 | 21.3 µM |
| COc1cccc2cc(C(=O)Nc3ccc4c(c3)OCCO4)oc12 | > 50 µM (inactive) |
| O=C(Nc1ccc(Cl)cc1F)c1cc(-c2ccccn2)n[nH]1 | 0.323 µM |
| COc1ccc(NC(=O)CN2C(=O)c3ccccc3Sc3ccc(C(=O)N4CCCC4)cc32)c(OC)c1 | 17.7 µM |
| CN1CC2CN(C(=O)Nc3cccnc3)CCN2Cc2ccccc21 (stereo unspecified) | > 50 µM (inactive) |
| O=C(COC(=O)c1ccc2ncsc2c1)Nc1ccccc1F | > 50 µM (inactive) |
| COc1ccc(NC(=O)Cn2c(CSc3ccc(C)cc3)nc3ccccc32)cc1 | 36 µM |
| O=C(Nc1ccc2c(c1)OCCO2)c1ccc(N2CCCCC2)nn1 | > 50 µM (inactive) |
| COc1ccc(Nc2nc(C(=O)NCc3ccc4c(c3)OCO4)cc3occc23)cc1 | 10.7 µM |
| CC(C)C(=O)Nc1ccc(N2CCN(Cc3ccc(F)cc3)C2=O)nc1 | 26.4 µM |
| CO[C@H]1/C=C/OC2(C)Oc3c(C)c(O)c4c(c3C2=O)C2(C=C(NC(=O)/C(C)=C\C=C\[C@H](C)[C@H](O)[C@@H](C)[C@@H](O)[C@@H](C)[C@H](OC(C)=O)C1C)C4=O)OCC(=O)O2 (stereo partly specified) | 42.6 µM |
